Tests used:
Assay type in all cases: biochemical
GSK3beta = GSK3beta (Homo sapiens, UniProt P49841); assay: Kinase inhibition assay, IC50 (Table A); conditions: Enzyme GSK3beta
Experimental: (§1) The inhibiting activity of putative kinase inhibitors and the potency of selected compounds is determined through a method of assay based on the use of the Kinase-Glo® Luminescent Kinase Assay (commercially available from Promega corporation and described in Koresawa, M. and Okabe, T. (2004) High-throughput screening with quantitation of ATP consumption: A universal non-radioisotope, homogeneous assay for protein kinase. Assay Drug Dev. Technol. 2, 153-60).
(§2) The inhibitory activity of putative kinase inhibitors and the potency of selected compounds were also determined using a trans-phosphorylation assay.
(§3) Specific peptide or protein substrates are trans-phosphorylated by their specific ser-thr or tyr kinase in the presence of ATP traced with ^33P-γ-ATP, and in the presence of their own optimal buffer and cofactors. At the end of the phosphorylation reaction, more than 98% unlabeled ATP and radioactive ATP is captured by an excess of the ion exchange dowex resin; the resin then settles down to the bottom of the reaction plate by gravity. Supernatant is subsequently withdrawn and transferred into a counting plate, then evaluated by β-counting.
(§4) Reaction conditions are target (enzyme) dependent and thus undergo individual adaptations. Also the buffer conditions may vary depending on the kinase of interest. The assay can be used with virtually any kinase and substrate combination and is suitable for all type of protein kinases, such as ABL, ACK1, AKT1, ALK, AUR1, AUR2, BRK, BUB1, CDC7/DBF4, CDK21CYCA, CHK1, CK2, EEF2K, EGFR1, EphA2, EphB4, ERK2, FAK, FGFR1, FLT3, GSK3beta, Haspin, IGFR1, IKK2, IR, JAK1, JAK2, JAK3, KIT, LCK, LYN, MAPKAPK2, MELK, MET, MNK2, MPSI, MST4, NEK6, NIM1, P38alpha, PAK-4, PDGFR, PDK1, PERK, PIM1, PIM2, PKAalpha, PKCbeta, PLK1, RET, ROS1, SULU1, Syk, TLK2, TRKA, TYK, VEGFR2, VEGFR3, ZAP70.

KIT = KIT (Homo sapiens, UniProt P10721); assay: Kinase inhibition assay, IC50 (Table A); conditions: Enzyme KIT
Experimental: as §1, §2, §3, §4

MELK = MELK (Homo sapiens, UniProt Q14680); assay: Kinase inhibition assay, IC50 (Table A); conditions: Enzyme MELK
Experimental: as §1, §2, §3, §4

CDK2/CYCA = target: T1, CDK2/CYCA (Homo sapiens, UniProt P24941); assay: Inhibition assay of Cdk2/Cyclin A activity (33P-ATP, histone H1 substrate); conditions: Enzyme CDK2/CYCA
T1 construct: host or cells: baculovirus expression system (co-expression)
Experimental: as §2, §3
(§5) As example herein are reported the assay conditions used for testing the compounds of formula (I) against cdc7 and cdk2 kinase.
To each well of the plate were added: • 10 μl test compound (10 increasing concentrations in the nM to uM range to generate a dose-response curve). The solvent for test compounds contained 3% DMSO. (final concentration 1%) • 10 μl substrate MCM2 ([…] final concentration), a mixture of cold ATP ([…] final concentration) and radioactive ATP (1/5000 molar ratio with cold ATP). • 10 μl enzyme (Cdc7/Dbf4, 2 nM final concentration) that started the reaction. […]

CDC7/DBF4 = CDC7/DBF4 (Homo sapiens, UniProt O00311); assay: Inhibition assay of Cdc7 activity (Dowex resin capture, 33P-ATP, MCM2 substrate); conditions: Enzyme CDC7/DBF4
Experimental: as §2, §3, §5
Inhibition Assay of Cdc7 Activity
The inhibiting activity of putative Cdc7 inhibitors and the potency of selected compounds is determined through a method of assay based on the use of Dowex resin capture technology.
The assay consists of the transfer of radioactivity labeled phosphate moiety by the kinase to an acceptor substrate.
The resulting ^33P-labeled product is separated from unreacted tracer, transferred into a scintillation cocktail and light emitted is measured in a scintillation counter. […]

ALK = ALK (Homo sapiens, UniProt Q9UM73); assay: Kinase inhibition assay, IC50 (Table A); conditions: Enzyme ALK
Experimental: as §1
As example herein are reported the assay conditions used for testing the compounds of formula (I) against ALKtide YFF APCo kinase; • ATP concentration: 1 μM • Enzyme concentration: 100 nM • Reaction buffer: Hepes 50 mM pH 7.5, MgCl2 5 mM, MnCl2 1 mM, DTT 1 mM, Na3VO4 3 uM, 0.2 mg/ml BSA. • Assay procedure: add 5 ul compound of formula (I) (3×), add 5 μl ATP/S mix (3×) in buffer 1×; add 5 μl enzyme in buffer 2×+3×BSA; for the blank, add 5 μl buffer 2×+3×BSA without enzyme. After 90 minutes of incubation, add 15 μl/well of Kinase-Glo reagent. After 60-90 minutes of incubation to stabilize the luminescent signal, the plates are read on a ViuwLux instrument.
as §2, §3
Reaction conditions are target (enzyme) dependent and thus undergo individual adaptations. Also the buffer conditions may vary depending on the kinase of interest. […]

FGFR1 = FGFR1 (Homo sapiens, UniProt P11362); assay: Kinase inhibition assay, IC50 (Table A); conditions: Enzyme FGFR1
Experimental: as §1, §2, §3, §4

LCK = LCK (Homo sapiens, UniProt P06239); assay: Kinase inhibition assay, IC50 (Table A); conditions: Enzyme LCK
Experimental: as §1, §2, §3, §4

ABL = ABL (Homo sapiens, UniProt P00519); assay: Kinase inhibition assay, IC50 (Table A); conditions: Enzyme ABL
Experimental: as §1, §2, §3, §4

ACK1 = ACK1 (Homo sapiens, UniProt Q07912); assay: Kinase inhibition assay, IC50 (Table A); conditions: Enzyme ACK1
Experimental: as §1, §2, §3, §4

EGFR1 = EGFR1 (Homo sapiens, UniProt P00533); assay: Kinase inhibition assay, IC50 (Table A); conditions: Enzyme EGFR1
Experimental: as §1, §2, §3, §4

BRK = BRK (Homo sapiens, UniProt Q13882); assay: Kinase inhibition assay, IC50 (Table A); conditions: Enzyme BRK
Experimental: as §1, §2, §3, §4

Chain of KIT (P10721 26-976): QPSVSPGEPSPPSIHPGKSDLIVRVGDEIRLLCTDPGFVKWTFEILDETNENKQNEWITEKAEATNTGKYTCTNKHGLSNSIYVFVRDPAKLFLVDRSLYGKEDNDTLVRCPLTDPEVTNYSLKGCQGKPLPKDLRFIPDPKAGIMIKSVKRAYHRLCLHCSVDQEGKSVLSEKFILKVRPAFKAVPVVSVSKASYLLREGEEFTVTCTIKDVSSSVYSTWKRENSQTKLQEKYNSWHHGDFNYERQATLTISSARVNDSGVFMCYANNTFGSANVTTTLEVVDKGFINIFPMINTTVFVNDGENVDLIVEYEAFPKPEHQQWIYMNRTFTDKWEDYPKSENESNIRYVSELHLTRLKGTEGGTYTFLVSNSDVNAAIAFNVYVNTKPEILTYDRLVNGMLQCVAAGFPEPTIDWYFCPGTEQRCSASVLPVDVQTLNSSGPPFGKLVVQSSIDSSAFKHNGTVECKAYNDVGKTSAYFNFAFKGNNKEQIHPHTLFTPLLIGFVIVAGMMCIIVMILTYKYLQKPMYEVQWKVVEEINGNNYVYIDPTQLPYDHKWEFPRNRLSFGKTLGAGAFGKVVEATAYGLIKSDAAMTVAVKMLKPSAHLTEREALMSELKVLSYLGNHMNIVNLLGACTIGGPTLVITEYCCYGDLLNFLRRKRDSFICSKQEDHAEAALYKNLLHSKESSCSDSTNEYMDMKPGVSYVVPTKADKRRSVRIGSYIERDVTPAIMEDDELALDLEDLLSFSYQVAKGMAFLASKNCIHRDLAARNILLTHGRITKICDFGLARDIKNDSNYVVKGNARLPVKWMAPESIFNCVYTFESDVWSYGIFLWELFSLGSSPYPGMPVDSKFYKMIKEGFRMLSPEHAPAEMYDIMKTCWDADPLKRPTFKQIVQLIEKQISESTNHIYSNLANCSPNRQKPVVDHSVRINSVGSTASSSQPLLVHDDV
Chain of BRK (Q13882 whole entry): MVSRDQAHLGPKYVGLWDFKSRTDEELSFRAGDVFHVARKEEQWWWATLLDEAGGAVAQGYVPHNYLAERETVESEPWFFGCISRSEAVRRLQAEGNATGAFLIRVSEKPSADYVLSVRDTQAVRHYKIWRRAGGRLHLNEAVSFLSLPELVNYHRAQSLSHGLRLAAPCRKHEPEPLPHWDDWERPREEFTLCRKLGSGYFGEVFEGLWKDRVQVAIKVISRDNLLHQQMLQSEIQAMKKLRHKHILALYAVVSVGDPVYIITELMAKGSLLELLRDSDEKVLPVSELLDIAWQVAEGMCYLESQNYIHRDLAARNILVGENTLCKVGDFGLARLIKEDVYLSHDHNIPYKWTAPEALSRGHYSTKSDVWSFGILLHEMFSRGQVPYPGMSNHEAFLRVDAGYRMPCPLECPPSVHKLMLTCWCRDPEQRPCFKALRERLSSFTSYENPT
Chain of LCK (P06239 whole entry): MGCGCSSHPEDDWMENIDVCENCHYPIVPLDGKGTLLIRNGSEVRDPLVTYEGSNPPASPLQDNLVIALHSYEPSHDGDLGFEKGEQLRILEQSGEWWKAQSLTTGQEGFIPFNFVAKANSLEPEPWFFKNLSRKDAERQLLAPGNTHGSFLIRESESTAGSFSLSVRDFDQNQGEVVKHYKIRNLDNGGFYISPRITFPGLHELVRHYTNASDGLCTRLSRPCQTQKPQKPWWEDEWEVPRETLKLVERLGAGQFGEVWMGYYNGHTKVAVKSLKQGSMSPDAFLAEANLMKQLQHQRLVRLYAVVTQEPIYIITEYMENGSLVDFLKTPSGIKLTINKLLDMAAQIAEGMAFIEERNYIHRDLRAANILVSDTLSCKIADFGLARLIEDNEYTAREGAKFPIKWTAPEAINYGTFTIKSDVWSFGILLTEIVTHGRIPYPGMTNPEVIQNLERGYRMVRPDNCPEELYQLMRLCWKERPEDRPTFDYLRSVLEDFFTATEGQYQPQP
Chain of ABL (P00519 whole entry): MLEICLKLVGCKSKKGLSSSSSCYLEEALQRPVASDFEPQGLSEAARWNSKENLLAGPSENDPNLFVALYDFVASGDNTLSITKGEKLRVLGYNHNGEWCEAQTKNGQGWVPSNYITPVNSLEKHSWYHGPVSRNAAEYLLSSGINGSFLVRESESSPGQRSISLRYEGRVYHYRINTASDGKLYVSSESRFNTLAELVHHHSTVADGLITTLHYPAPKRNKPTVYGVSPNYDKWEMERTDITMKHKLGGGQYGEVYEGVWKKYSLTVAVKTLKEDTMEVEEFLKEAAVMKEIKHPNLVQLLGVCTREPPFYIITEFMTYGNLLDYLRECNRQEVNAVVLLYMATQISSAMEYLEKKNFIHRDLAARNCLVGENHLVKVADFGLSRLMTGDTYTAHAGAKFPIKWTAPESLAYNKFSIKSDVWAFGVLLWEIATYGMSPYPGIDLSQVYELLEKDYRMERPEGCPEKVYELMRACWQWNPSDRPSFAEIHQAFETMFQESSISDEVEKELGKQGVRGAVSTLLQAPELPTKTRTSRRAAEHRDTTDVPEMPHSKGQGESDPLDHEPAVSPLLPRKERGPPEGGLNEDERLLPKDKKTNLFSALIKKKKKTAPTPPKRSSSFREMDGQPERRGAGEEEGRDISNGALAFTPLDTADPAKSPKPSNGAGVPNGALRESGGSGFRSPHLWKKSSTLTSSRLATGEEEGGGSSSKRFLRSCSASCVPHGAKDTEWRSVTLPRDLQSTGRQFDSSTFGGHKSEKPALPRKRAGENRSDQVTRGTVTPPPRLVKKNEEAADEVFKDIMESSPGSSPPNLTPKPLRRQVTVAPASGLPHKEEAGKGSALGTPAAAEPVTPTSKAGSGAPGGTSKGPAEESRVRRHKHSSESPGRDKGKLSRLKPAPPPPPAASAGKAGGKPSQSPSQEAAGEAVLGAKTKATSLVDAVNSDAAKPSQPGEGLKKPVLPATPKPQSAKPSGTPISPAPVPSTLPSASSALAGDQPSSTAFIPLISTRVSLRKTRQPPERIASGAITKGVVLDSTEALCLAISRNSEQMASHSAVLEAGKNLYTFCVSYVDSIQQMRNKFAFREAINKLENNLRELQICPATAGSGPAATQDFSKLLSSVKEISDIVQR
Chain of CDC7/DBF4 (O00311 whole entry): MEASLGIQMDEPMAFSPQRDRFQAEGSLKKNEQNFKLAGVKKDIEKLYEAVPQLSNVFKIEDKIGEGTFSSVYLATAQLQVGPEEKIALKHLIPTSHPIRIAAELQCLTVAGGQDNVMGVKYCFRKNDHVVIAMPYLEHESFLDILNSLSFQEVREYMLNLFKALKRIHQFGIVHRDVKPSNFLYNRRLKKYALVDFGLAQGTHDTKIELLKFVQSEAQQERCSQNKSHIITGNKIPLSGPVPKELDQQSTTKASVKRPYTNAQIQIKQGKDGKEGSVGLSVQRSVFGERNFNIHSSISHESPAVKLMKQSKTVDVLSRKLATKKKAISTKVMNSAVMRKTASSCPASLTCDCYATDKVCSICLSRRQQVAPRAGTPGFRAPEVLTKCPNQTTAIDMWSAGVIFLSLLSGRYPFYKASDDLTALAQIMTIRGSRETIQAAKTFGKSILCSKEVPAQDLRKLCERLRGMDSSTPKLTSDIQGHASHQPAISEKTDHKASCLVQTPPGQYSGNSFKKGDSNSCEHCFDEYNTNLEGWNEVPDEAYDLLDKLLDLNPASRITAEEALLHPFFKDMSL
Chain of CDC7/DBF4 (Q9UBU7 whole entry partner): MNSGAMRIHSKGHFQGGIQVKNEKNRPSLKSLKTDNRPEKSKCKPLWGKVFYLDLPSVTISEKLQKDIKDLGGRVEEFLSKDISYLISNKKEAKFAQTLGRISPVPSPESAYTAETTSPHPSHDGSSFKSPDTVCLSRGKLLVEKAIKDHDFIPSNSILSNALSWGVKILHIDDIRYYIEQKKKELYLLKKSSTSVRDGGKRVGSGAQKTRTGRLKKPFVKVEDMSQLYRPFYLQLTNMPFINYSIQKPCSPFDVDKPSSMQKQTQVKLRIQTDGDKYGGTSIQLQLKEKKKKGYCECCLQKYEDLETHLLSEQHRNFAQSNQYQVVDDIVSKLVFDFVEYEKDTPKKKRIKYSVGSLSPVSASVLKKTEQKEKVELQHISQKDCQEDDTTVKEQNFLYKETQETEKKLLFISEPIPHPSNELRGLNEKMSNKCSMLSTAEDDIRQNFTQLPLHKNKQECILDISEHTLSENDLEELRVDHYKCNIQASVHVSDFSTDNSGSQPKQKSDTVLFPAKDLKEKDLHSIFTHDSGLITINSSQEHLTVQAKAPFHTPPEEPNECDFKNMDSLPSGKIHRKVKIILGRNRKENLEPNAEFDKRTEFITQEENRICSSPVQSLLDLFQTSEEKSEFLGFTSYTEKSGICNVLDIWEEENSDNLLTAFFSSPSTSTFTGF
Chain of MELK (Q14680 whole entry): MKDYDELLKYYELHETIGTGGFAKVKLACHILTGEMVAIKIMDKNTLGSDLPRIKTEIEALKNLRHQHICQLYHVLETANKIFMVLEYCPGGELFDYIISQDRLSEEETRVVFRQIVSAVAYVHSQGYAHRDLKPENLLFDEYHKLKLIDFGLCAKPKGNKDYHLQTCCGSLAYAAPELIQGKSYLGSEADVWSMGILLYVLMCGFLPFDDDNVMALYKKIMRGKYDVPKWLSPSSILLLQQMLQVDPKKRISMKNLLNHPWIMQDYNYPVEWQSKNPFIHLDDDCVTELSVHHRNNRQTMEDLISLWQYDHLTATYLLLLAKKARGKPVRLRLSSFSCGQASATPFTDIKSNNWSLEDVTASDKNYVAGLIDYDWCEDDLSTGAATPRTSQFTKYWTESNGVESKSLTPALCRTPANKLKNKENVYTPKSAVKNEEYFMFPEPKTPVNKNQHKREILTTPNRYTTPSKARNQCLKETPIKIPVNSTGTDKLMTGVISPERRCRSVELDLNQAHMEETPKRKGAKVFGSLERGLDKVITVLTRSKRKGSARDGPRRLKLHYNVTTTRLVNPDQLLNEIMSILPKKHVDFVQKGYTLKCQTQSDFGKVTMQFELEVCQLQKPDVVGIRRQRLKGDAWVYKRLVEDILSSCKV

IC50 (GSK3beta)	IC50 (KIT)	IC50 (MELK)	IC50 (CDK2/CYCA)	IC50 (CDC7/DBF4)	IC50 (ALK)	IC50 (FGFR1)	IC50 (LCK)	IC50 (ABL)	IC50 (ACK1)	IC50 (EGFR1)	IC50 (BRK)	SMILES
1.92 µM	2.61 µM	6.33 µM	1.9 µM	2.99 µM								CNC(=O)c1cc2n(c1)CCc1c(NC(=O)c3ccc(N4CCN(C)CC4)cc3)n[nH]c1-2 [Example A16-M1-B18]
	1.31 µM				3.4 µM	7.27 µM	0.59 µM	0.54 µM	1.01 µM	7.87 µM	4.68 µM	O=C(NCCN1CCCC1)c1cc2n(c1)CCc1c(NC(=O)c3ccccc3Cl)n[nH]c1-2 [Example A5-M1-B43]

— patent US9127015B2, “Tricyclopyrazole derivatives” (NERVIANO MEDICAL SCIENCES S.R.L., priority 2009, dated 2015)
